{"source": "BindingDB's records for doi:10.1074/jbc.273.36.23321", "about": "(Synaptic Pharmaceutical, 1998)", "key": {"Galanin receptor type 3 [1]": {"target": "T1, Galanin receptor type 3 (Homo sapiens, UniProt O60755)", "T1 sequence (O60755 whole entry)": "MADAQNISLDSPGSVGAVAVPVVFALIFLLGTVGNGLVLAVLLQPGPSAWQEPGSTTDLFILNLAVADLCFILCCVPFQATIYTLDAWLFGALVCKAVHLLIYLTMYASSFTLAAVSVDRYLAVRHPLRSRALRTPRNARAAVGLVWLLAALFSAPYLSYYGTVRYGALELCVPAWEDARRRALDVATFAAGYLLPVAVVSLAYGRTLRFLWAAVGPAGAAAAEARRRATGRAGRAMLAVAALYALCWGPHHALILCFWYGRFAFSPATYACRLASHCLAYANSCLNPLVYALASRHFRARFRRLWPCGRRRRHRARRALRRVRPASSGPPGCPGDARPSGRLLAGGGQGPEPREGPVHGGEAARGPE"}, "Galanin receptor type 3 [2]": {"target": "T2, Galanin receptor type 3 (Rattus norvegicus, UniProt O88626)", "T2 sequence (O88626 whole entry)": "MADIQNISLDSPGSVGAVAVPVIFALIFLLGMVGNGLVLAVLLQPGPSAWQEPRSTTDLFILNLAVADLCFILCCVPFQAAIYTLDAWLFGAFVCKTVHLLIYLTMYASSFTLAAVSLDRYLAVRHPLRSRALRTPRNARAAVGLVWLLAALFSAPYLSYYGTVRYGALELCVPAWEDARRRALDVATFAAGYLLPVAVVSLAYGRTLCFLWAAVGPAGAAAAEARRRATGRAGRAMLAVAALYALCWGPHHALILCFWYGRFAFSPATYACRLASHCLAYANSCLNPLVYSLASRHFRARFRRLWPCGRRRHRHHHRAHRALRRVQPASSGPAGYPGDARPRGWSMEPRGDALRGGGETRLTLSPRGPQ"}, "Galanin receptor type 2": {"target": "T3, Galanin receptor type 2 (Rattus norvegicus, UniProt O08726)", "T3 sequence (O08726 whole entry)": "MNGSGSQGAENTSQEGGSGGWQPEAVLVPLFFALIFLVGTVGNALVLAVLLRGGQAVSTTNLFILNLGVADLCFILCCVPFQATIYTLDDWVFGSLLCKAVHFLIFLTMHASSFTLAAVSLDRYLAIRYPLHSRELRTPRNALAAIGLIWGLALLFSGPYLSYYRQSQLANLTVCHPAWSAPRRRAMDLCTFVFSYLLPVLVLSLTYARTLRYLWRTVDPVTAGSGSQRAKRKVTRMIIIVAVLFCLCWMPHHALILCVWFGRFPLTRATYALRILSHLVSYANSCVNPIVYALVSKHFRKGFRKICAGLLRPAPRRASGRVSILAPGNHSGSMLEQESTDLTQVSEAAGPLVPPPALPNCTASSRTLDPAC"}}, "note": "pKi: −log10 of the molar value. Residues, ends and D or L forms follow the SMILES beside them.", "data": [{"compound": "CC(C)C[C@H](NC(=O)[C@H](CC(C)C)NC(=O)[C@H](Cc1ccc(O)cc1)NC(=O)CNC(=O)[C@H](C)NC(=O)[C@H](CO)NC(=O)[C@H](CC(N)=O)NC(=O)[C@H](CC(C)C)NC(=O)[C@@H](NC(=O)[C@H](Cc1c[nH]c2ccccc12)NC(=O)CN)[C@@H](C)O)C(=O)NCC(=O)N1CCC[C@H]1C(=O)N1CCC[C@H]1C(=O)N1CCC[C@H]1C(=O)NCC(=O)N[C@@H](Cc1ccccc1)C(=O)N[C@@H](CO)C(=O)N1CCC[C@H]1C(=O)N[C@@H](Cc1ccccc1)C(=O)N[C@@H](CCCN=C(N)N)C(N)=O", "values": [{"measurement": "pKi", "setting": "Galanin receptor type 3 [1]", "result": 7.84}, {"measurement": "pKi", "setting": "Galanin receptor type 3 [2]", "result": 8.68}]}, {"compound": "COc1ccccc1N(CCOc1ccc(C)cc1)C(=O)CN1CCCCC1", "note": "[CAS_3043476]", "values": [{"measurement": "pKi", "setting": "Galanin receptor type 3 [1]", "result": 7.40}, {"measurement": "pKi", "setting": "Galanin receptor type 3 [2]", "result": 7.98}, {"measurement": "pKi", "setting": "Galanin receptor type 2", "result": 9.00}]}, {"compound": "CC(C)C[C@H](NC(=O)[C@H](CC(C)C)NC(=O)[C@@H](Cc1c[nH]c2ccccc12)NC(=O)[C@H](Cc1ccccc1)NC(=O)[C@@H](Cc1c[nH]c2ccccc12)NC(=O)[C@H](CCC(N)=O)NC(=O)[C@H](CCC(N)=O)NC(=O)[C@@H]1CCCN1C(=O)[C@H](CCCCN)NC(=O)[C@@H]1CCCN1C(=O)[C@@H](CCCN=C(N)N)NC(=O)[C@@H]1CCCN1C(=O)CNC(=O)[C@H](CC(C)C)NC(=O)[C@H](CC(C)C)NC(=O)[C@H](Cc1ccc(O)cc1)NC(=O)CNC(=O)[C@H](C)NC(=O)[C@H](CO)NC(=O)[C@H](CC(N)=O)NC(=O)[C@H](CC(C)C)NC(=O)[C@@H](NC(=O)[C@H](Cc1c[nH]c2ccccc12)NC(=O)CN)[C@@H](C)O)C(N)=O", "note": "[Gal(1-13)-Std I] (HELM PEPTIDE1{G.W.T.L.N.S.A.G.Y.L.L.G.P.[dR].P.K.P.Q.Q.[dW].F.[dW].L.L.[am]}$$$$V2.0)", "values": [{"measurement": "pKi", "setting": "Galanin receptor type 3 [1]", "result": 8.09}, {"measurement": "pKi", "setting": "Galanin receptor type 2", "result": 9.25}]}, {"compound": "CC(C)C[C@H](NC(=O)[C@H](CC(C)C)NC(=O)[C@@H](Cc1c[nH]c2ccccc12)NC(=O)[C@H](Cc1ccccc1)NC(=O)[C@@H](Cc1c[nH]c2ccccc12)NC(=O)[C@H](CCC(N)=O)NC(=O)[C@H](CCC(N)=O)NC(=O)[C@@H]1CCCN1C(=O)[C@H](CCCCN)NC(=O)[C@@H]1CCCN1C(=O)[C@@H](CCCNC(=N)N)NC(=O)[C@@H]1CCCN1C(=O)CNC(=O)[C@H](CC(C)C)NC(=O)[C@H](CC(C)C)NC(=O)[C@H](Cc1ccc(O)cc1)NC(=O)CNC(=O)[C@H](C)NC(=O)[C@H](CO)NC(=O)[C@H](CC(N)=O)NC(=O)[C@H](CC(C)C)NC(=O)[C@@H](NC(=O)[C@H](Cc1c[nH]c2ccccc12)NC(=O)CN)[C@@H](C)O)C(N)=O", "note": "[Gal(1-13)-Std I] (HELM PEPTIDE1{G.W.T.L.N.S.A.G.Y.L.L.G.P.[dR].P.K.P.Q.Q.[dW].F.[dW].L.L.[am]}$$$$V2.0)", "values": [{"measurement": "pKi", "setting": "Galanin receptor type 3 [2]", "result": 8.35}]}, {"compound": "CC[C@H](C)[C@H](NC(=O)[C@H](C)NC(=O)[C@H](Cc1c[nH]cn1)NC(=O)[C@@H]1CCCN1C(=O)CNC(=O)[C@H](CC(C)C)NC(=O)[C@H](CC(C)C)NC(=O)[C@H](Cc1ccc(O)cc1)NC(=O)CNC(=O)[C@H](C)NC(=O)[C@H](CO)NC(=O)[C@H](CC(N)=O)NC(=O)[C@H](CC(C)C)NC(=O)[C@@H](N)[C@@H](C)O)C(=O)N[C@@H](CC(=O)O)C(=O)N[C@@H](CC(N)=O)C(=O)N[C@@H](Cc1c[nH]cn1)C(=O)N[C@@H](CCCNC(=N)N)C(=O)N[C@@H](CO)C(=O)N[C@@H](Cc1ccccc1)C(=O)N[C@@H](Cc1c[nH]cn1)C(=O)N[C@@H](CC(=O)O)C(=O)N[C@@H](CCCCN)C(=O)N[C@@H](Cc1ccc(O)cc1)C(=O)NCC(=O)N[C@@H](CC(C)C)C(=O)N[C@@H](C)C(N)=O", "note": "[Galanin (3-29), porcine]", "values": [{"measurement": "pKi", "setting": "Galanin receptor type 3 [1]", "result": 6.00}]}, {"compound": "CC[C@H](C)[C@H](NC(=O)[C@H](C)NC(=O)[C@H](Cc1cnc[nH]1)NC(=O)[C@@H]1CCCN1C(=O)CNC(=O)[C@H](CC(C)C)NC(=O)[C@H](CC(C)C)NC(=O)[C@H](Cc1ccc(O)cc1)NC(=O)CNC(=O)[C@H](C)NC(=O)[C@H](CO)NC(=O)[C@H](CC(N)=O)NC(=O)[C@H](CC(C)C)NC(=O)[C@@H](NC(=O)[C@H](Cc1c[nH]c2ccccc12)NC(=O)CN)[C@@H](C)O)C(=O)N[C@@H](CC(=O)O)C(=O)N[C@@H](CC(N)=O)C(=O)N[C@@H](Cc1cnc[nH]1)C(N)=O", "note": "[Galanin rat]", "values": [{"measurement": "pKi", "setting": "Galanin receptor type 3 [1]", "result": 7.91}, {"measurement": "pKi", "setting": "Galanin receptor type 3 [2]", "result": 8.48}, {"measurement": "pKi", "setting": "Galanin receptor type 2", "result": 8.87}]}, {"compound": "CC[C@H](C)[C@H](NC(=O)[C@H](Cc1ccc(O)cc1)NC(=O)[C@H](Cc1c[nH]cn1)NC(=O)[C@H](CCCNC(=N)N)NC(=O)[C@@H]1CCCN1C(=O)CNC(=O)[C@H](CC(C)C)NC(=O)[C@H](CC(C)C)NC(=O)[C@H](Cc1ccc(O)cc1)NC(=O)CNC(=O)[C@H](C)NC(=O)[C@H](CO)NC(=O)[C@H](CC(N)=O)NC(=O)[C@H](CC(C)C)NC(=O)[C@@H](NC(=O)[C@H](Cc1c[nH]c2ccccc12)NC(=O)CN)[C@@H](C)O)C(=O)N[C@@H](CC(N)=O)C(=O)N[C@@H](CC(C)C)C(=O)N[C@H](C(=O)N[C@H](C(=O)N[C@@H](CCCNC(=N)N)C(=O)N[C@@H](CCC(N)=O)C(=O)N[C@@H](CCCNC(=N)N)C(=O)N[C@@H](Cc1ccc(O)cc1)C(N)=O)[C@@H](C)O)[C@@H](C)CC", "note": "[M32]", "values": [{"measurement": "pKi", "setting": "Galanin receptor type 3 [2]", "result": 8.91}]}, {"compound": "H-GWTLNSAGYLLGPPPALALA-NH2 [M40]", "values": [{"measurement": "pKi", "setting": "Galanin receptor type 3 [1]", "result": 6.54}, {"measurement": "pKi", "setting": "Galanin receptor type 3 [2]", "result": 7.10}, {"measurement": "pKi", "setting": "Galanin receptor type 2", "result": 8.45}]}]}
